According to paper PMC11091976, “Shorter Peptide Nucleic Acid Probes Improve Affibody-Mediated Peptide Nucleic Acid-Based Pretargeting” (ACS Pharmacology & Translational Science, 2024):
Where two headings read alike, the source gives them in different places. Marks after values point to notes of the source that are not given here.

Legend:
[1] = system: Z-HP9; experiment: Multicycle kinetic SPR, immobilized Z-HP9; format: binding; settings: MCK SPR
Protocol: (§1) We utilized SPR on a Biacore T200 instrument (Cytiva) to examine how secondary PNA probes (6-mer HP19, 7-mer HP21, 8-mer HP20, and 9-mer HP16) bind to primary agents. These experiments were conducted using dextran-coated CM5 sensor chips and PBS-T buffer at pH 7.4. The ligands were immobilized through a standard EDC/NHS coupling method, and the chip surface was sealed with ethanolamine. A reference surface with no primary agent was also included.
Association and dissociation times were set at 700 and 1800 s, respectively, with regeneration accomplished through a 30 s injection of 10 mM glycine-HCl, pH 1.5.
(§2) All SPR experiments were performed in duplicate, and data analysis was conducted using the Biacore T200 Evaluation software version 2.0 with a 1:1 binding model.

[2] = target: Z-HP15; experiment: SPR off-rate screening (single-cycle kinetics), immobilized Z-HP15; format: binding; settings: primary probe HP15 (immobilized Z-HP15), 25 °C, PBS-T pH 7.4, 120 nM HP16/HP20 or 362 nM HP21/HP19, dissociation 150 min, 1:1 model, duplicates
Protocol: (§3) The stability of new pretargeting probe combinations was assessed using SPR, and duplex melting temperatures were measured with UV–vis spectroscopy. In SPR, a high concentration of the secondary probe was injected over immobilized primary agents, and the dissociation of the hybridized complexes was monitored over 150 min (see Figures 3A, S22, and Table 2).
as §1
(§4) For ranking the off-rate (kd) of the secondary probes, we employed single-cycle kinetics (SCK) at 25 °C with a flow rate of 50 μL/min. […] Secondary PNA probes were injected at various concentrations, and dissociation was monitored for 10,000 s. To regenerate the chip surface, we used two 30 s injections of 10 mM glycine-HCl, pH 1.5.
as §2
(§5) Figure S22: Representative SPR sensorgrams of the dissociation phase of HP16 (9-mer), HP20 (8-mer), HP21 (7-mer) and HP19 […]
(§6) After injection with the secondary probe
(§7) (120 nM of HP16 and HP20 or 362 nM of HP21 and HP19) the dissociation of the formed complex was followed for 150 minutes. All experiments were done in duplicates, and the data presented is double-referenced (reference channel and buffer injection are subtracted).
(§8) (1 picture or pasted object on this page, not shown here)

[3] = target: Z-HP12; experiment: SPR off-rate screening (single-cycle kinetics), immobilized Z-HP12; format: binding; settings: primary probe HP12 (immobilized Z-HP12), 25 °C, PBS-T pH 7.4, 120 nM HP16/HP20 or 362 nM HP21/HP19, dissociation 150 min, 1:1 model, duplicates
Protocol: as §3, §1, §4, §2, §5, §6, §7, §8

[4] = target: Z-HP9; experiment: SPR off-rate screening (single-cycle kinetics), immobilized Z-HP9; format: binding; settings: primary probe HP9 (immobilized Z-HP9), 25 °C, PBS-T pH 7.4, 120 nM HP16/HP20 or 362 nM HP21/HP19, dissociation 150 min, 1:1 model, duplicates
Protocol: as §3, §1, §4, §2, §5, §6, §7, §8

[5] = target: ZHER2-HP15; settings: SPR; cited from earlier work
Protocol: Our previously published preclinical therapy studies are based on PNA probes having 15 complementary nucleobases.[26],[27] Upon hybridization, these probes form an exceptionally stable duplex with a melting temperature (Tm) in solution of 86–88 °C. In a Biacore experiment, less than 5% of the hybridized secondary PNA detached during a 17 h long dissociation phase.[20] It is likely that shorter probe pairs than the original 15-mers provide enough binding affinity and specificity to achieve an efficient pretargeted radionuclide therapy in vivo.

[6] = format: physicochemical
Protocol: Table 4 summarizes the radiochemical yield (RCY), purity, and stability test results for all ^177Lu-labeled probes in this study. […] Such radiolabeling yield necessitated purification to achieve the requisite radiochemical purity of over 95%. Purification was conducted using a NAP-5 column, eluted with 1% BSA in PBS, resulting in radiochemical purities of 99 ± 1.7% for [^177Lu]Lu-Z-HP9 and 98.5 ± 2.2% for [^177Lu]Lu-Z-HP12, respectively. […] Thus, it was essential that the label was stable, and the compound was pure. […] The RCY for the secondary probes exceeded 97%, and consequently, further purification was deemed unnecessary for in vitro and in vivo studies. Importantly, all probes labeled with ^177Lu remained stable in the presence of an excess amount of EDTA and in PBS as control after incubation at 37 °C for 1 h.
Radiolabeling of primary and secondary probes with ^177Lu was performed using a previously described method.[29] Briefly, 100 μL of 0.2 M of NH4Ac, pH 5.5 was added to 30 μg of the probe (100 μL of 0.3 mg/mL stock in NH4Ac) to provide right pH for the labeling. The mixture was heated at 95 °C for 10 min, followed by sonication for 5 min, and reheating at 95 °C for 10 min to ensure complete dissolving. […] RCY was then analyzed using iTLC developed with 0.2 M citric acid, pH 2.0. […] Samples were run in triplicates and analyzed by radio-iTLC.

[7] = cited from earlier work
Protocol: Table 4 ^177Lu-Labeling of PNA-Based Probes and In Vitro Stability | column: stability in PBS, 37 °C, 1 h; stability (×500 EDTA), 37 °C, 1 h

## DOTA-AEEA-SS-aacaccagg-EEY-NH2 [HP16, 9-mer secondary PNA probe with DOTA]
[1]; primary probe HP9 (Z-HP9 immobilized), 25 °C, 1.4-70 nM, 1:1 model, duplicates
  ka: 1.8 × 10^5 M^–1 s^–1
[1]; primary probe HP9, 25 °C
  Kd: 0.27 nM
  kd: 4.8 × 10^–5 s^–1
[1]; primary probe HP9, 37 °C
  Kd: 0.39 nM
  ka: 2.9 × 10^5 M^–1 s^–1
  kd: 1.1 × 10^–4 s^–1
[2]
  kd: 1.2 × 10^–5 s^–1
[3]
  kd: 1.3 × 10^–5 s^–1
[4]
  kd: 2.5 × 10^–5 s^–1
[5]
  Kd: 0.28 nM
  kd: 1.2 × 10^–5 s^–1

## NC(=O)[C@H](Cc1ccc(O)cc1)NC(=O)[C@H](CCC(=O)O)NC(=O)[C@H](CCC(=O)O)NC(=O)CN(CCNC(=O)CN(CCNC(=O)CN(CCNC(=O)CN(CCNC(=O)CN(CCNC(=O)CN(CCNC(=O)CN(CCNC(=O)CN(CCNC(=O)[C@H](CO)NC(=O)[C@H](CO)NC(=O)COCCOCCNC(=O)CN1CCN(CC(=O)O)CCN(CC(=O)O)CCN(CC(=O)O)CC1)C(=O)Cn1cnc2c(N)ncnc21)C(=O)Cn1ccc(N)nc1=O)C(=O)Cn1cnc2c(N)ncnc21)C(=O)Cn1ccc(N)nc1=O)C(=O)Cn1ccc(N)nc1=O)C(=O)Cn1cnc2c(N)ncnc21)C(=O)Cn1cnc2c(=O)[nH]c(N)nc21)C(=O)Cn1cnc2c(=O)[nH]c(N)nc21 [[^177Lu]Lu-HP20, metal not drawn]
[6]
  stability (×500 EDTA), 37 °C, 1 h: 99.5 ± 0.7
  stability in PBS, 37 °C, 1 h: 100 ± 0

## NC(=O)[C@H](Cc1ccc(O)cc1)NC(=O)[C@H](CCC(=O)O)NC(=O)[C@H](CCC(=O)O)NC(=O)CN(CCNC(=O)CN(CCNC(=O)CN(CCNC(=O)CN(CCNC(=O)CN(CCNC(=O)CN(CCNC(=O)CN(CCNC(=O)CN(CCNC(=O)CN(CCNC(=O)[C@H](CO)NC(=O)[C@H](CO)NC(=O)COCCOCCNC(=O)CN1CCN(CC(=O)O)CCN(CC(=O)O)CCN(CC(=O)O)CC1)C(=O)Cn1cnc2c(N)ncnc21)C(=O)Cn1cnc2c(N)ncnc21)C(=O)Cn1ccc(N)nc1=O)C(=O)Cn1cnc2c(N)ncnc21)C(=O)Cn1ccc(N)nc1=O)C(=O)Cn1ccc(N)nc1=O)C(=O)Cn1cnc2c(N)ncnc21)C(=O)Cn1cnc2c(=O)[nH]c(N)nc21)C(=O)Cn1cnc2c(=O)[nH]c(N)nc21 [[^177Lu]Lu-HP16, metal not drawn]
[7]
  stability (×500 EDTA), 37 °C, 1 h: 100 ± 0 ^a
  stability in PBS, 37 °C, 1 h: 100 ± 0 ^a
